Laboratory results from publication PMC8253220, “Molecular design, synthesis and in vitro biological evaluation of thienopyrimidine–hydroxamic acids as chimeric kinase HDAC inhibitors: a challenging approach to combat cancer” (Journal of Enzyme Inhibition and Medicinal Chemistry, 2021).
“And” between values parts separate entries of the source, which are not always exact repeats. Identical values can stand only once.

Experiments:
Format in all cases: cell-based, human
A549/ATCC = test: NCI one-dose screen; conditions: NSCLC A549/ATCC, 10 µM single dose
Method in brief: (§1)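 One concentration (10 μM) applied to each line of the full NCI-60 panel; percent growth compared against untreated cells.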

BT-549 = test: NCI one-dose screen; conditions: Breast BT-549, 10 µM single dose
Method in brief: as §1

CAKI-1 = test: NCI one-dose screen; conditions: Renal CAKI-1, 10 µM single dose
Method in brief: as §1

DU-145 = test: NCI one-dose screen; conditions: Prostate DU-145, 10 µM single dose
Method in brief: as §1

EKVX = test: NCI one-dose screen; conditions: NSCLC EKVX, 10 µM single dose
Method in brief: (§2)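 In vitro antiproliferative testing: NCI-60 panel, initial single dose 10 μM, inhibition % derived from percent growth of treated versus untreated control cells.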

HCC-2998 = test: NCI one-dose screen; conditions: Colon HCC-2998, 10 µM single dose
Method in brief: as §1

HCT-15 = test: NCI one-dose screen; conditions: Colon HCT-15, 10 µM single dose
Method in brief: as §1

HL-60(TB) = test: NCI one-dose screen; conditions: Leukemia HL-60(TB), 10 µM single dose
Method in brief: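 At 10 μM, a single concentration, compounds were evaluated for antiproliferative effect in the NCI 60-line screen, with growth expressed relative to untreated control cells.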

HOP-62 = test: NCI one-dose screen; conditions: NSCLC HOP-62, 10 µM single dose
Method in brief: as §2

HOP-92 = test: NCI one-dose screen; conditions: NSCLC HOP-92, 10 µM single dose
Method in brief: as §1

HS 578T = test: NCI one-dose screen; conditions: Breast HS 578T, 10 µM single dose
Method in brief: as §1

KM12 = test: NCI one-dose screen; conditions: Colon KM12, 10 µM single dose
Method in brief: (§3)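 Each cell line received compound at 10 μM as part of the NCI one-dose protocol. Values reflect growth inhibition percent calculated from growth relative to untreated controls.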

MCF7 = test: NCI one-dose screen; conditions: Breast MCF7, 10 µM single dose
Method in brief: as §3

MDA-MB-231/ATCC = test: NCI one-dose screen; conditions: Breast MDA-MB-231/ATCC, 10 µM single dose
Method in brief: as §1

MDA-MB-435 = test: NCI one-dose screen; conditions: Melanoma MDA-MB-435, 10 µM single dose
Method in brief: as §1

MDA-MB-468 = test: NCI one-dose screen; conditions: Breast MDA-MB-468, 10 µM single dose
Method in brief: as §3

NCI-H322M = test: NCI one-dose screen; conditions: NSCLC NCI-H322M, 10 µM single dose
Method in brief: as §1

NCI-H460 = test: NCI one-dose screen; conditions: NSCLC NCI-H460, 10 µM single dose
Method in brief: as §1

OVCAR-3 = test: NCI one-dose screen; conditions: Ovarian OVCAR-3, 10 µM single dose
Method in brief: as §1

OVCAR-4 = test: NCI one-dose screen; conditions: Ovarian OVCAR-4, 10 µM single dose
Method in brief: as §1

OVCAR-5 = test: NCI one-dose screen; conditions: Ovarian OVCAR-5, 10 µM single dose
Method in brief: as §1

OVCAR-8 = test: NCI one-dose screen; conditions: Ovarian OVCAR-8, 10 µM single dose
Method in brief: as §1

PC-3 = test: NCI one-dose screen; conditions: Prostate PC-3, 10 µM single dose
Method in brief: (§4)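 Compounds were tested at a single dose of 10 μM across the full NCI-60 cell line panel. Growth was expressed as percent growth relative to untreated control cells, reported as percent inhibition.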

RPMI-8226 = test: NCI one-dose screen; conditions: Leukemia RPMI-8226, 10 µM single dose
Method in brief: as §1

RXF 393 = test: NCI one-dose screen; conditions: Renal RXF 393, 10 µM single dose
Method in brief: as §1

SF-295 = test: NCI one-dose screen; conditions: CNS SF-295, 10 µM single dose
Method in brief: as §1

SF-539 = test: NCI one-dose screen; conditions: for Growth Percent: CNS SF-539, 10 µM single dose
Method in brief: as §3

SK-MEL-28 = test: NCI one-dose screen; conditions: Melanoma SK-MEL-28, 10 µM single dose
Method in brief: as §4

SK-MEL-5 = test: NCI one-dose screen; conditions: Melanoma SK-MEL-5, 10 µM single dose
Method in brief: as §1

SK-OV-3 = test: NCI one-dose screen; conditions: Ovarian SK-OV-3, 10 µM single dose
Method in brief: as §1

SN12C = test: NCI one-dose screen; conditions: Renal SN12C, 10 µM single dose
Method in brief: as §1

TK-10 = test: NCI one-dose screen; conditions: Renal TK-10, 10 µM single dose
Method in brief: as §1

U251 = test: NCI one-dose screen; conditions: CNS U251, 10 µM single dose
Method in brief: as §2

UACC-257 = test: NCI one-dose screen; conditions: Melanoma UACC-257, 10 µM single dose
Method in brief: as §4

UO-31 = test: NCI one-dose screen; conditions: Renal UO-31, 10 µM single dose
Method in brief: as §2

full NCI 60 cell panel = test: NCI one-dose screen, whole panel statistics; conditions: 1.00E-5 Molar; for Mean Growth Percent: mean over panel
Method in brief: as §4

| SMILES | Growth Percent (A549/ATCC) | Growth Percent (BT-549) | Growth Percent (CAKI-1) | Growth Percent (DU-145) | Growth Percent (EKVX) | Growth Percent (HCC-2998) | Growth Percent (HCT-15) | Growth Percent (HL-60(TB)) | Growth Percent (HOP-62) | Growth Percent (HOP-92) | Growth Percent (HS 578T) | Growth Percent (KM12) | Growth Percent (MCF7) | Growth Percent (MDA-MB-231/ATCC) | Growth Percent (MDA-MB-435) | Growth Percent (MDA-MB-468) | Growth Percent (NCI-H322M) | Growth Percent (NCI-H460) | Growth Percent (OVCAR-3) | Growth Percent (OVCAR-4) | other results |
| --- | --- | --- | --- | --- | --- | --- | --- | --- | --- | --- | --- | --- | --- | --- | --- | --- | --- | --- | --- | --- | --- |
| COc1cccc(NC(=O)Nc2ccc(Nc3ncnc4sc(C(=O)NCCCC(=O)NO)c(C)c34)cc2)c1 [Compound 12b, 1–(4-(6-((4-(hydroxyamino)-4-oxobutyl)carbamoyl)-5-methylthieno[2,3-d]pyrimidin-4-ylamino)phenyl)-3–(3-methoxyphenyl)urea] | 105.8% and 105.84% | 105.5% and 105.57% | 97.1% and 97.14% | 98.5% and 98.54% | 92.1% and 92.11% | 108.5% and 108.55% | 99.6% and 99.68% | 102.4% | 100.4% and 100.49% | 112.3% and 112.35% | 99.2% | 101.3% and 101.38% | 91.5% | 97.0% and 97.05% | 100.9% | 97.0% and 97.02% | 95.9% and 95.94% | 99.1% | 99.3% and 99.38% | 99.9% and 99.93% | Growth Percent (OVCAR-5): 107.5% and 107.59%; Growth Percent (OVCAR-8): 103.6% and 103.67%; Growth Percent (PC-3): 98.6% and 98.65%; Growth Percent (RPMI-8226): 106.6% and 106.68%; Growth Percent (RXF 393): 110.4% and 110.44%; Growth Percent (SF-295): 102.5% and 102.51%; Growth Percent (SF-539): 98.2% and 98.26%; Growth Percent (SK-MEL-28): 104.0% and 104.05%; Growth Percent (SK-MEL-5): 97.3% and 97.37%; Growth Percent (SK-OV-3): 114.7% and 114.77%; Growth Percent (SN12C): 104.5% and 104.52%; Growth Percent (TK-10): 107.7% and 107.72%; Growth Percent (U251): 92.8% and 92.88%; Growth Percent (UACC-257): 104.3% and 104.35%; Growth Percent (UO-31): 82.0% and 82.06%; Delta (one dose mean graph) (full NCI 60 cell panel): 18.34%; Range (one dose mean graph) (full NCI 60 cell panel): 33.01%; Mean Growth Percent (full NCI 60 cell panel): 100.10% |
| Cc1c(C(=O)NCCCC(=O)NO)sc2ncnc(Nc3ccc(NC(=O)Nc4cccc(C(F)(F)F)c4)cc3)c12 [Compound 12c, 1–(4-(6-((4-(hydroxyamino)-4-oxobutyl)carbamoyl)-5-methylthieno[2,3-d]pyrimidin-4-ylamino)phenyl)-3–(3-(trifluoromethyl)phenyl)urea] | 107.3% and 107.34% | 118.8% and 118.81% | 100.6% and 100.67% | 106.6% and 106.64% | 100.0% and 100.09% | 113.6% and 113.65% | 99.9% and 99.96% | 104.7% and 104.71% | 103.3% | 130.0% and 130.03% | 93.9% and 93.91% | 102.1% and 102.13% | 95.2% and 95.26% | 99.1% and 99.12% | 101.5% and 101.59% | 105.6% and 105.66% | 105.0% and 105.06% | 101.9% and 101.92% | 117.8% and 117.86% | 110.1% and 110.14% | Growth Percent (OVCAR-5): 111.3% and 111.33%; Growth Percent (OVCAR-8): 105.9% and 105.93%; Growth Percent (PC-3): 111.1% and 111.12%; Growth Percent (RPMI-8226): 104.0% and 104.09%; Growth Percent (RXF 393): 108.5% and 108.58%; Growth Percent (SF-295): 93.7% and 93.78%; Growth Percent (SF-539): 71.5% and 71.52%; inhibition at 10 µM (SF-539; Homo sapiens, CNS SF-539, 10 μM): 28.5%; Growth Percent (SK-MEL-28): 109.2% and 109.22%; Growth Percent (SK-MEL-5): 100.9% and 100.91%; Growth Percent (SK-OV-3): 113.9% and 113.94%; Growth Percent (SN12C): 104.6% and 104.65%; Growth Percent (TK-10): 117.7% and 117.79%; Growth Percent (U251): 87.3% and 87.39%; Growth Percent (UACC-257): 107.0%; Growth Percent (UO-31): 89.6% and 89.64%; Delta (one dose mean graph) (full NCI 60 cell panel): 33.40%; Range (one dose mean graph) (full NCI 60 cell panel): 59.27%; Mean Growth Percent (full NCI 60 cell panel): 104.16% |
